Assay: Dissociation constant, pKa of the compound
Format: physicochemical

| Compound | pKa |
| --- | --- |
| c1cc(Nc2ccc(NC3=NCCN3)cc2)ccc1NC1=NCCN1 | 9.9 |
| N=C(N)Nc1ccc(Nc2ccc(NC(=N)N)cc2)cc1 | 10.8 |
| N=C(N)Nc1ccc(C(=O)c2ccc(NC(=N)N)cc2)cc1 | 9.4 |
| O=C(c1ccc(NC2=NCCN2)cc1)c1ccc(NC2=NCCN2)cc1 | 8.6 |
| c1cc(NC2=NCCN2)ccc1Cc1ccc(NC2=NCCN2)cc1 | 9.8 |
| N=C(N)Nc1ccc(Cc2ccc(NC(=N)N)cc2)cc1 | 10.5 |
| COc1cc2nc(N3CCN(C(=O)C4COc5ccccc5O4)CC3)nc(N)c2cc1OC (centres undefined) [DOXAZOSIN] | 6.9 |
| CNC[C@H](O)c1ccc(O)c(O)c1 [EPINEPHRINE] | 8.59 |
| NC[C@H](O)c1ccc(O)c(O)c1 [NOREPINEPHRINE] | 8.58 |
